Tests used:
[1] = system: wild oat; experiment: Test B pre/postemergence wild oat; format: in vivo, Avena fatua
Outline: (§1)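 Response is a visual 0-to-10 score relative to untreated plants, where 0 means no effect and 10 means complete control, taken twelve to sixteen days after application. Treatments went onto soil at planting and onto foliage of 1- to 4-leaf plants, using a surfactant-containing non-phytotoxic solvent.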

[2] = system: blackgrass; experiment: Test B pre/postemergence blackgrass; format: in vivo, Alopecurus myosuroides
Outline: as §1

[3] = system: bedstraw; experiment: Test B pre/postemergence bedstraw; format: in vivo, Galium aparine
Outline: as §1

[4] = system: soybean; experiment: Test B pre/postemergence soybean; format: in vivo, Glycine max
Outline: as §1

[5] = system: cocklebur; experiment: Test B pre/postemergence cocklebur; format: in vivo, Xanthium strumarium
Outline: as §1

[6] = system: giant foxtail; experiment: Test B pre/postemergence giant foxtail; format: in vivo, Setaria faberii
Outline: as §1

[7] = system: rape; experiment: Test B pre/postemergence rape; format: in vivo, Brassica napus
Outline: as §1

[8] = system: velvetleaf; experiment: Test B pre/postemergence velvetleaf; format: in vivo, Abutilon theophrasti
Outline: as §1

[9] = system: pigweed; experiment: Test B pre/postemergence pigweed; format: in vivo, Amaranthus retroflexus
Outline: as §1

[10] = system: wheat; experiment: Test B pre/postemergence wheat; format: in vivo, Triticum aestivum
Outline: as §1

[11] = system: smallflower flatsedge; experiment: Test B flood test smallflower flatsedge; format: in vivo, Cyperus difformis
Outline: (§2)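 Each value is a visual injury score relative to controls, with 10 meaning complete control and 0 no effect. Evaluation took place twelve to sixteen days after the 2-leaf-stage plants were treated and kept in the greenhouse.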

[12] = system: sugar beet; experiment: Test B pre/postemergence sugar beet; format: in vivo, Beta vulgaris
Outline: as §1

[13] = system: surinam grass; experiment: Test B pre/postemergence surinam grass; format: in vivo, Brachiaria decumbens
Outline: as §1

[14] = system: morningglory; experiment: Test B pre/postemergence morningglory; format: in vivo, Ipomoea hederacea
Outline: as §1

[15] = system: rice; experiment: Test B flood test rice; format: in vivo, Oryza sativa
Outline: as §2

[16] = system: corn; experiment: Test B pre/postemergence corn; format: in vivo, Zea mays
Outline: as §1

[17] = Postemergence, Rate 62 g/ha, scale 0 to 10, 0 is no effect, 10 is complete control
[18] = Postemergence, Rate 250 g/ha, scale 0 to 10, 0 no effect, 10 complete control
[19] = Preemergence, Rate 125 g/ha, scale 0 to 10 (0 no effect, 10 complete control)
[20] = Preemergence, Rate 250 g/ha, scale of 0 to 10 where 0 is no effect and 10 is complete control
[21] = Preemergence, Rate 500 g/ha, scale 0 (no effect) to 10 (complete control)
[22] = Rate 125 g/ha, Postemergence, scale 0 to 10, 0 no effect, 10 complete control
[23] = Preemergence, Rate 62 g/ha, scale 0 to 10, 0 is no effect, 10 is complete control
[24] = Rate 500 g/ha, Postemergence, 0 to 10 scale (0 no effect, 10 complete control)
[25] = Rate 125 g/ha, Postemergence section (flood test species), scale 0 to 10, 0 no effect, 10 complete control
[26] = Rate 125 g/ha, Pre-emergence, flood test species, scale 0 to 10 where 0 is no effect and 10 is complete control
[27] = Rate 250 g/ha, headed Pre-emergence (flood test species), scale 0 to 10 (0 no effect, 10 complete control)
[28] = Rate 500 g/ha, headed Pre-emergence (flood test species), scale 0 to 10 (0 no effect, 10 complete control)
[29] = flood test, listed under Postemergence, Rate 250 g/ha, scale 0 to 10, 0 no effect, 10 complete control

Structure (SMILES): COc1ccc(-n2c(=O)on(C(=O)N(c3ccc(F)cc3)C(C)C)c2=O)c(C)c1 [Compound 35]
- Wild oats plant response rating [1, 17]: 0
- Wild oats plant response rating [1, 18]: 0
- Plant response rating, Wild oats [1, 19]: 0
- Plant response rating, Wild oats [1, 20]: 2
- Wild oats plant response rating [1, 21]: 6
- Wild oats plant response rating [1, 22]: 0
- Blackgrass plant response rating [2, 17]: 0
- Blackgrass plant response rating [2, 18]: 1
- Plant response rating, Blackgrass [2, 23]: 0
- Plant response rating, Blackgrass [2, 19]: 2
- Plant response rating, Blackgrass [2, 20]: 2
- Blackgrass plant response rating [2, 21]: 3
- Blackgrass plant response rating [2, 22]: 0
- Blackgrass plant response rating [2, 24]: 7
- Bedstraw plant response rating [3, 17]: 0
- Bedstraw plant response rating [3, 18]: 3
- Plant response rating, Bedstraw [3, 23]: 0
- Plant response rating, Bedstraw [3, 19]: 0
- Plant response rating, Bedstraw [3, 20]: 0
- Bedstraw plant response rating [3, 21]: 0
- Bedstraw plant response rating [3, 22]: 2
- Bedstraw plant response rating [3, 24]: 6
- Soybean plant response rating [4, 17]: 1
- Soybean plant response rating [4, 18]: 1
- Plant response rating, Soybean [4, 23]: 0
- Plant response rating, Soybean [4, 19]: 0
- Plant response rating, Soybean [4, 20]: 0
- Soybean plant response rating [4, 21]: 0
- Soybean plant response rating [4, 22]: 1
- Cocklebur plant response rating [5, 17]: 0
- Cocklebur plant response rating [5, 18]: 4
- Plant response rating, Cocklebur [5, 23]: 0
- Plant response rating, Cocklebur [5, 19]: 0
- Plant response rating, Cocklebur [5, 20]: 0
- Cocklebur plant response rating [5, 21]: 0
- Cocklebur plant response rating [5, 22]: 2
- Cocklebur plant response rating [5, 24]: 5
- Giant foxtail plant response rating [6, 17]: 0
- Giant foxtail plant response rating [6, 18]: 1
- Plant response rating, Giant foxtail [6, 23]: 3
- Plant response rating, Giant foxtail [6, 19]: 7
- Plant response rating, Giant foxtail [6, 20]: 10
- Giant foxtail plant response rating [6, 21]: 10
- Giant foxtail plant response rating [6, 22]: 0
- Giant foxtail plant response rating [6, 24]: 7
- Rape plant response rating [7, 17]: 0
- Rape plant response rating [7, 18]: 0
- Plant response rating, Rape [7, 23]: 0
- Plant response rating, Rape [7, 19]: 0
- Plant response rating, Rape [7, 20]: 0
- Rape plant response rating [7, 21]: 0
- Rape plant response rating [7, 22]: 0
- Rape plant response rating [7, 24]: 2
- Velvetleaf plant response rating [8, 17]: 0
- Velvetleaf plant response rating [8, 18]: 0
- Plant response rating, Velvetleaf [8, 23]: 0
- Plant response rating, Velvetleaf [8, 19]: 0
- Plant response rating, Velvetleaf [8, 20]: 0
- Velvetleaf plant response rating [8, 21]: 0
- Velvetleaf plant response rating [8, 22]: 0
- Redroot pigweed plant response rating [9, 17]: 0
- Redroot pigweed plant response rating [9, 18]: 9
- Plant response rating, Redroot pigweed [9, 23]: 0
- Plant response rating, Redroot pigweed [9, 19]: 0
- Plant response rating, Redroot pigweed [9, 20]: 0
- Redroot pigweed plant response rating [9, 21]: 0
- Redroot pigweed plant response rating [9, 22]: 7
- Redroot pigweed plant response rating [9, 24]: 9
- Wheat plant response rating [10, 17]: 0
- Wheat plant response rating [10, 18]: 0
- Plant response rating, Wheat [10, 23]: 0
- Plant response rating, Wheat [10, 19]: 0
- Plant response rating, Wheat [10, 20]: 0
- Wheat plant response rating [10, 21]: 0
- Wheat plant response rating [10, 22]: 0
- S. Flatsedge plant response rating [11, 17]: 0
- S. Flatsedge plant response rating ([11]; Pre-emergence, Rate 1000 g/ha, scale 0 to 10 (0 no effect, 10 complete control)): 0
- S. Flatsedge plant response rating [11, 25]: 0
- S. Flatsedge plant response rating [11, 26]: 0
- S. Flatsedge plant response rating [11, 27]: 0
- Plant response rating, S. Flatsedge [11, 28]: 0
- S. Flatsedge plant response rating [11, 29]: 0
- Sugarbeets plant response rating [12, 17]: 0
- Plant response rating, Sugarbeets [12, 23]: 0
- Plant response rating, Sugarbeets [12, 19]: 0
- Plant response rating, Sugarbeets [12, 20]: 0
- Sugarbeets plant response rating [12, 21]: 0
- Sugarbeets plant response rating [12, 22]: 3
- B. signalgrass plant response rating [13, 17]: 0
- B. signalgrass plant response rating [13, 18]: 0
- Plant response rating, B. signalgrass [13, 23]: 0
- Plant response rating, B. signalgrass [13, 19]: 0
- Plant response rating, B. signalgrass [13, 20]: 3
- B. signalgrass plant response rating [13, 21]: 7
- B. signalgrass plant response rating [13, 22]: 0
- B. signalgrass plant response rating [13, 24]: 0
- Morningglory plant response rating [14, 17]: 4
- Morningglory plant response rating [14, 18]: 8
- Plant response rating, Morningglory [14, 23]: 0
- Plant response rating, Morningglory [14, 19]: 0
- Plant response rating, Morningglory [14, 20]: 0
- Morningglory plant response rating [14, 21]: 0
- Morningglory plant response rating [14, 22]: 7
- Morningglory plant response rating [14, 24]: 8
- Rice plant response rating [15, 17]: 0
- Rice plant response rating [15, 25]: 0
- Rice plant response rating [15, 26]: 0
- Rice plant response rating [15, 27]: 0
- Rice plant response rating ([15]; Rate 500 g/ha, Postemergence section of Table B, 0 to 10 scale (0 no effect, 10 complete control)): 0
- Plant response rating, Rice [15, 28]: 0
- Rice plant response rating ([15]; Rate 1000 g/ha, Pre-emergence (as headed), scale 0 to 10): 0
- Rice plant response rating [15, 29]: 0
- Corn plant response rating [16, 17]: 0
- Corn plant response rating [16, 18]: 0
- Plant response rating, Corn [16, 23]: 0
- Plant response rating, Corn [16, 19]: 0
- Plant response rating, Corn [16, 20]: 0
- Corn plant response rating [16, 21]: 0
- Corn plant response rating [16, 22]: 0
- Corn plant response rating [16, 24]: 0
